Article PMC11238337, “Crafting Stable Antibiotic Nanoparticles via Complex Coacervation of Colistin with Block Copolymers” (Biomacromolecules, 2024)

Columns and labels:
[1] = tested on: Mesenchymal stem cells (MSC); experiment: Toxicity assay (LDH activity, caspase-3 level in medium); type: cell-based, human; settings: 24 h, 0.7 mg/mL colistin
Experimental: Human embryonic kidney (HEK 293 cells) (ATCC, CRL-1573) were cultured in Dulbecco’s modified Eagle medium (DMEM), low glucose (Sigma Aldrich) supplemented with 100 U/mL penicillin and 100 μg/mL streptomycin (15140-122; Gibco, Waltham), 1% GlutaMAX (35050; Gibco), and 20% fetal bovine serum (F9665; Sigma Aldrich). Mesenchymal stem cells (MSC, PT-2501; Lonza) were cultured in Mesenchymal Stem Cell Basel Medium (PT-3238; Lonza)) supplemented with MSCGM SingleQuots (PT-4105; Lonza). Human gingival keratinocytes (HGK) (PCS-200-014; ATCC) were cultured in Dermal Cell Basal Medium (PCS-200-030; ATCC) supplemented with Keratinocytes Growth Kit (PCS-200-040; ATCC). Human umbilical cord endothelial cells (HUVEC, 200p-05n; Cell Applications) were cultured in Endothelial Cell Growth Medium (211-500; Cell Applications). The cell types were seeded in 12-well culture-treated plates at a density of 4 × 10^4 cells/cm^2. Upon confluency (set at time point 0), the cells were exposed to cell-specific growth medium containing formulations with a concentration of 1.0 mg/mL total concentration (0.7 mg/mL colistin) of f+ = 0.50 C3Ms or equivalent concentrations of colistin, and polymer as a control. […] LDH activity in the cell culture media was evaluated using a cytotoxicity detection kit (11644793001; Roche). […]

[2] = tested on: E. coli; experiment: Agar broth dilution testing for MIC50 (turbidity); type: cell-based, Escherichia coli; settings: LB liquid media, 0.0-50 μg/mL colistin, 24 h at 37 °C, McFarland turbidity, duplicate, sigmoid fit; all concentrations below the CMC
Experimental: (§1) In the DDA, the susceptibility of Escherichia coli (DSM613), Serratia indica (NCIMB 8869), Pseudomonas fluorescens (DSM20030), A. vinelandii (DSM2290), and Bacillus subtilis (DSM10) was tested. Sterile filter disks (VWR) were impregnated (using an automatic pipette) with 3.0 μg of colistin from either colistin sulfate or colistin-C3Ms (at f+ = 0.50) in a concentration above the CMC (at 1.0 mg/mL) and dried under sterile air. Bacterial plates were prepared by freshly pouring bacterial medium until it set. Second, a layer of LB medium, that was premixed with 10 μL of bacteria from overnight cultures, was added. Then, the disks were added, and the plates were incubated for 24 h at 37 °C. The sizes of the inhibition zones were measured and averaged. Experiments were performed in triplicate. With the agar broth dilution testing, it was possible to determine the MIC50 values. LB liquid media in test tubes containing equal amounts of E. coli culture (10 μL of bacteria from overnight cultures to 5 mL of media) was mixed with either colistin or colistin-C3Ms with equal colistin for a concentration between 0.0 and 50 μg/mL. The test tubes were incubated for 24 h at 37 °C and their turbidity was measured with a McFarland turbidimeter. The agar broth dilution experiments were done in duplicate. To determine the MIC50 values, curves were averaged and then fitted with a sigmoid function.

[3] = biological target: T1, proteinase K (Parengyodontium album, UniProt P06873); experiment: Enzymatic breakdown susceptibility, SAXS read-out; type: in vitro ADME; settings: 24 h at 37 °C
T1 construct: purchased Sigma Aldrich
T1 sequence (P06873 106-384): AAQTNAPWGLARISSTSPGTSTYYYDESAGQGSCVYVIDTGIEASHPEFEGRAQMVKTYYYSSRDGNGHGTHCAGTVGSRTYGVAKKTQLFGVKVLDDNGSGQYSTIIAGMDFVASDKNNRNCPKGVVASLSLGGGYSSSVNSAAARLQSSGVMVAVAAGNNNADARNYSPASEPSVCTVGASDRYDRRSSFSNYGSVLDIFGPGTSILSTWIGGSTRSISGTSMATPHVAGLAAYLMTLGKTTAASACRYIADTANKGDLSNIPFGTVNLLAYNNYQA
Experimental: (§3) The enzymatic breakdown susceptibility was analyzed by adding proteinase K (3.4.21.64; Sigma Aldrich), subtilisin (3.4.21.62; Sigma Aldrich), and trypsin (3.4.21.4; Sigma Aldrich) to either colistin (at 3.4 mg/mL) or C3Ms at f+ = 0.50 (total concentration 5.0 mg/mL) at their suppliers’ recommended concentration/ratio for optimized breakdown (molar ratios of enzyme:colistin ≈ 1:130 for proteinase K, ≈ 1:70 for subtilisin and ≈ 1:180 for trypsin). We assessed the difference in susceptibility between noncomplexed colistin and C3Ms. Colistin solution was incubated with enzymes for 24 h at 37 °C, after which polymer solution (kept 24 h at 37 °C) was added while in the other case, premade C3Ms were incubated with enzymes for 24 h at 37 °C. These samples were analyzed using SAXS and modeled, including enzyme scattering (using the Debye form factor since the scattering was too small to use a prolate/oblate ellipsoid form factor, eq 8) to monitor the molecular weight of the complex coacervates after exposure to enzyme degradation.

[4] = tested on: trypsin; experiment: Enzymatic breakdown susceptibility, SAXS read-out; settings: 24 h at 37 °C, enzyme:colistin ≈ 1:180
Experimental: as §3

[5] = tested on: Human gingival keratinocytes (HGK); experiment: Toxicity assay (LDH activity, caspase-3 level in medium); type: cell-based; settings: 24 h; 0.7 mg/mL colistin
Experimental: (§2) Human embryonic kidney (HEK 293 cells) (ATCC, CRL-1573) were cultured in Dulbecco’s modified Eagle medium (DMEM), low glucose (Sigma Aldrich) supplemented with 100 U/mL penicillin and 100 μg/mL streptomycin (15140-122; Gibco, Waltham), 1% GlutaMAX (35050; Gibco), and 20% fetal bovine serum (F9665; Sigma Aldrich). Mesenchymal stem cells (MSC, PT-2501; Lonza) were cultured in Mesenchymal Stem Cell Basel Medium (PT-3238; Lonza)) supplemented with MSCGM SingleQuots (PT-4105; Lonza). Human gingival keratinocytes (HGK) (PCS-200-014; ATCC) were cultured in Dermal Cell Basal Medium (PCS-200-030; ATCC) supplemented with Keratinocytes Growth Kit (PCS-200-040; ATCC). Human umbilical cord endothelial cells (HUVEC, 200p-05n; Cell Applications) were cultured in Endothelial Cell Growth Medium (211-500; Cell Applications). The cell types were seeded in 12-well culture-treated plates at a density of 4 × 10^4 cells/cm^2. Upon confluency (set at time point 0), the cells were exposed to cell-specific growth medium containing formulations with a concentration of 1.0 mg/mL total concentration (0.7 mg/mL colistin) of f+ = 0.50 C3Ms or equivalent concentrations of colistin, and polymer as a control. The medium was changed for both control cells and stimulated cells every two days, 24 h before the harvest of the medium to ensure the same window of accumulated cell-secreted factors in the media. Cytotoxicity assays on lactate dehydrogenase (LDH) activity and caspase-3 level were performed at 24, 48, and 72 h and executed in triplicate. LDH activity in the cell culture media was evaluated using a cytotoxicity detection kit (11644793001; Roche). In short, 50 μL of the collected supernatant was mixed with 50 μL of the reaction mixture and incubated in a dark room at room temperature for 30 min.

[6] = tested on: Human embryonic kidney (HEK 293 cells); experiment: as above; type: cell-based
Experimental: as §2

[7] = tested on: A. vinelandii (DSM2290); experiment: Disk diffusion assay (DDA); type: cell-based; settings: 3.0 μg colistin per disk, 24 h at 37 °C
Experimental: as §1

[8] = tested on: Pseudomonas fluorescens (DSM20030); experiment: Disk diffusion assay (DDA); type: cell-based; settings: 3.0 μg colistin per disk, 24 h at 37 °C
Experimental: as §1

[9] = tested on: Escherichia coli (DSM613); experiment: Disk diffusion assay (DDA); type: cell-based; settings: 3.0 μg colistin per disk, 24 h at 37 °C, triplicate, averaged
Experimental: as §1

[10] = tested on: Serratia indica (NCIMB 8869); experiment: Disk diffusion assay (DDA); type: cell-based; settings: 3.0 μg colistin per disk, 24 h at 37 °C
Experimental: as §1

[11] = biological target: T2, subtilisin (Bacillus licheniformis, UniProt P00780); experiment: Enzymatic breakdown susceptibility, SAXS read-out; type: in vitro ADME; settings: 24 h at 37 °C
T2 construct: purchased Sigma Aldrich
T2 sequence (P00780 106-379): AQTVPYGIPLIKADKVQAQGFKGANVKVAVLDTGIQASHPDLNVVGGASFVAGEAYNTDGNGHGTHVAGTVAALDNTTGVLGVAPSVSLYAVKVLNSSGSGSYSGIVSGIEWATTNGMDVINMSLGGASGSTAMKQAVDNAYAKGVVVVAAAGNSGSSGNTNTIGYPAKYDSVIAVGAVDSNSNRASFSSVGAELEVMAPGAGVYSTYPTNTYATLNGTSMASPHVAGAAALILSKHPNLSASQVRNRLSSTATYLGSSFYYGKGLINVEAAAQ
Experimental: as §3

[12] = tested on: Bacillus subtilis (DSM10); experiment: Disk diffusion assay (DDA), control strain; type: cell-based; settings: 3.0 μg colistin per disk, 24 h at 37 °C; Gram-positive negative control
Experimental: as §1

Substance: colistin sulfate
- caspase-3 level versus control [1]: no significant difference
- LDH activity, fold change of control ([1]; mean of 3): 2 fold
- MIC50 [2]: 1.5 ± 0.1 µg/mL
- Mw of complex coacervates after proteinase K degradation ([3]; enzyme:colistin ≈ 1:130, colistin 3.4 mg/mL digested then complexed with polymer (without C3M protection) or premade C3Ms 5.0 mg/mL digested (with C3M protection), SAXS fit): 0.13 MDa
- factor of reduction of average Mw of complex coacervates by proteinase K ([3]; versus untreated C3Ms): ≈ 20
- breakdown by trypsin, result in words [4]: ineffective in breaking down colistin
- LDH (necrosis), result in words [5]: caused necrosis (LDH)
- caspase-3 (apoptosis), result in words [5]: apoptosis (caspase-3)
- LDH activity versus control ([6]; 24, 48, 72 h, 0.7 mg/mL colistin): no significant differences
- caspase-3 level, fold change of control ([6]; day one (24 h), 0.7 mg/mL colistin (1.0 mg/mL total for C3Ms), mean of 3): up to 3 fold
- inhibition zone, result in words [7]: immeasurable small inhibition zones
- inhibition zone, result in words [8]: not visibly affected
- size of inhibition zone (ΔR) [9]: 1.9 ± 0.1 mm
- inhibition zone, result in words [10]: grew back over the inhibition zones
- Mw of complex coacervates after subtilisin degradation ([11]; enzyme:colistin ≈ 1:70, colistin 3.4 mg/mL digested then complexed with polymer (without C3M protection) or premade C3Ms 5.0 mg/mL digested (with C3M protection), SAXS fit): 0.042 MDa
- factor of reduction of Mw of complex coacervates by subtilisin ([11]; versus untreated C3Ms): ≈ 50
- inhibition zone, result in words [12]: no inhibition zones could be observed
